Patent US20100255580A1, “Differentiation of Human Embryonic Stem Cells” (LIFESCCAN, INC., priority 2007, published 2010)

System: human embryonic stem cells (H9, H7) on MATRIGEL
Assay: FACS of CXCR4, DE protocol on […] (feeder-free)
Type: cell-based
Conditions: for cells expressing CXCR4 (FACS): H9 passage 54, end of the 5th day, 100 ng/ml Activin A +/− 10 ng/ml Wnt3a for 2 days
Method: Adhered cells were removed from culture plates by five-minute incubation with TrypLE™ Express solution (Invitrogen, CA). Released cells were resuspended in human embryonic stem cell culture medium and recovered by centrifugation, followed by washing and resuspending the cells in a staining buffer consisting of 2% BSA, 0.05% sodium azide in PBS (Sigma, MO). As appropriate, the cells were Fc-receptor blocked for 15 minutes using a 0.1% γ-globulin (Sigma) solution. […] Controls included appropriate isotype matched antibodies, unstained cells, and cells stained only with secondary conjugated antibody. All incubations with antibodies were performed for 30 mins at 4° C. after which the cells were washed with the staining buffer. Samples that were stained with unconjugated primary antibodies were incubated for an additional 30 mins at 4° C. with secondary conjugated PE or -APC labeled antibodies. See Table I for a list of secondary antibodies used. Washed cells were pelleted and resuspended in the staining buffer, and the cell surface molecules were identified using a FACS Array (BD Biosciences) instrument, collecting at least 10,000 events.
Differentiation of embryonic stem cells to definitive endoderm was carried out as previously described in Nature Biotechnology 23, 1534-1541 (December 2005). […] H9 cells were cultured on plates coated with growth factor reduced […] at a 1:30 to 1:10 dilution or on regular […] at a 1:30 to 1:10 dilution The plates were coated with […] for 1 hr at room temperature.
At day 5, the cultures were analyzed by FACS for CXCR4, E-cadherin, CD9, and N-cadherin expression and by real time PCR for SOX-17, SOX-7, Alpha-fetal protein (AFP), CXCR4, Brychyury (Bry), gooscecoid (GSC), HNF-3 beta, and GATA4. AFP and SOX-7 are regarded as visceral endoderm markers, while GATA4, HNF-3 beta and SOX-17 represent definite endoderm markers, and GSC, Bry, and CXCR4 represent markers of primitive streak. FIG. 17 depicts the expression of CXCR4 by FACS.
Differentiation of embryonic stem cells to definitive endoderm was carried out as previously described in Nature Biotechnology 23, 1534-1541 (December 2005). […] In all subsequent examples unless otherwise noted, this treatment regimen will be referred to as the definite endoderm (DE) protocol. In parallel, H9, H7, or H1 cells cultured on MEF feeders were also exposed to the same DE protocol outlined above.
In some of the cultures 20 ng/ml Wnt-3a (Catalog #1324-WN-002, R&D Systems, MN), 20 ng/ml Wnt-5a (Catalog #654-WN-010, R&D Systems, MN), 25 ng/ml Wnt-7a (Catalog #3008-WN-025, R&D Systems, MN), or 25 ng/ml Wnt-5b (Catalog #3006-WN-025, R&D Systems, MN) was added throughout the five day treatment. FIG. 24 depicts phase contrast images of H9P46 definitive endoderm culture in the presence of high concentration of (a) AA or (b) AA+20 ng/ml Wnt-3a. FIG. 25 depicts the expression of CXCR4 by FACS at day 5 for H7P44, and H9P46 lines cultured on […] (1:30 dilution) and exposed to the DE protocol+Wnt-3a (FIG. 25, panels b and d) and −Wnt-3a (FIG. 25, panels a and c).
Control cultures were not treated with Wnt-3a. FIG. 27, panel a depicts the expression of CXCR4 by FACS at day 5 in the absence of Wnt-3a, b) 10 ng/ml Wnt-3a, c) 20 ng/ml Wnt-3a and d) 50 ng/ml Wnt-3a. In the absence of Wnt-3a the expression of CXCR4 was very low. […] Real-time PCR results (FIG. 28, panel a) also confirm this finding.
In order to confirm that the effect of Wnt-3a was through the Wnt pathway, a GSK-3 inhibitor was used to activate the downstream targets of Wnt, such as beta catenin. […] FIG. 29, panel a depicts the expression of CXCR4 by FACS at day 5 in the absence of Wnt-3a or GSK-3B inhibitor, b) +20 ng/ml Wnt-3a, c) +1000 nM GSK-3B inhibitor IX, d) +500 nM GSK-3B inhibitor IX, e) +100 nM GSK-3B inhibitor IX, f) +10 nM GSK-3B inhibitor IX, g) +100 nM GSK-3B inhibitor IX for days 1-2, and h) +10 nM GSK-3B inhibitor IX for days 1-2. […]

[1] = H9P46-P48, 20 ng/ml Wnt-3a or 100-1000 nM GSK-3B inhibitor, day 5

Wnt-3a
expression of CXCR4 (CD184) by FACS (H7P44 and H9P46, day 5, DE protocol + 20 ng/ml Wnt-3a vs low serum plus AA): robust expression
number of CXCR4 positive cells [1]: significantly increased
number of CXCR4 positive cells (H9P46, 10-50 ng/ml Wnt-3a with 100 ng/ml AA, day 5): significantly increased
cells expressing CXCR4 (FACS): 73%

Activin A: a member of the TGFβ superfamily; R&D Systems; Group 2 = Activin A (100 ng/ml)
cells expressing CXCR4 (FACS): 1%

O=C1Nc2cc(Br)ccc2/C1=C1/Nc2ccccc2/C1=N\O [GSK-3B inhibitor IX, reference compound]
number of CXCR4 positive cells [1]: significantly increased
expression of CXCR4 (FACS) (H9P46-P48, 10 nm GSK-3B inhibitor, day 5): very low
